Test systems include Candida albicans MDM8; Escherichia coli SBS 363; Micrococcus luteus A270; Candida albicans C627; Salmonella sp.; Escherichia coli; Yersinia enterocolitica; Escherichia coli BL21AI.
Assay in all cases: ≥ marks a high value that may be exact or a test limit, other limits are often not marked, values filed in µg/mL are converted to µM
In experiment [1] the test system is Burkholderia thailandensis.
Experiment [2] relates to Bacillus subtilis ATCC 9372.
Experiment [3] has as its system Bacillus anthracis Sterne 34F2.
The subject of experiment [4] is Mycobacterium tuberculosis H37Rv.
In experiment [5] the test system is Staphylococcus aureus SAP 0017.
Experiment [6] concerns Staphylococcus aureus ATCC 25923.
The test system of experiment [7] is Staphylococcus aureus C623.
The subject of experiment [8] is Pseudomonas aeruginosa LES400.
Experiment [9] has as its system Pseudomonas aeruginosa H103.
Experiment [10] has as its system Pseudomonas aeruginosa 213.
The subject of experiment [11] is Escherichia coli ESBL 63103.
The subject of experiment [12] is Enterococcus faecium mic80.
Experiment [13] has as its system Staphylococcus aureus ATCC 43300.
Experiment [14] deals with Escherichia coli ATCC 25922.
The test system of experiment [15] is Staphylococcus aureus ATCC 29213.
For experiment [16], the system named is Salmonella enterica subsp. enterica serovar Enteritidis.
Experiment [17] concerns Micrococcus luteus ATCC 10240.

In brackets after ≈: the same amount, converted by molar mass. Several values for one entry are separate records, joined by “and”; a condition that tells them apart may be missing. Equal values may be shown once.

From DBAASP come the findings set out here.

In general, MIC refers to the least concentration at which growth counts as inhibited. A low value points to inhibition by little substance.

`CC[C@H](C)[C@H](NC(=O)[C@H](CC(C)C)NC(=O)[C@H](CO)NC(=O)[C@H](CC(C)C)NC(=O)[C@H](Cc1ccccc1)NC(=O)[C@@H](N)CO)C(=O)N[C@@H](CCCN=C(N)N)C(=O)N[C@@H](CCCCN)C(=O)N[C@@H](CC(C)C)C(=O)N[C@H](C(=O)N[C@H](C(N)=O)[C@@H](C)O)[C@@H](C)CC` [SFLSLIRKLIT]: the MIC was 0.78 µM (≈ 1.01 µg/mL) against Candida albicans MDM8, 1.56 µM (≈ 2.01 µg/mL) with Escherichia coli SBS 363 and 0.78 µM (≈ 1.01 µg/mL) against Micrococcus luteus A270.

Consider `CC[C@H](C)[C@H](NC(=O)[C@H](Cc1ccc(O)cc1)NC(=O)CNC(=O)[C@@H](NC(=O)[C@@H](NC(=O)CNC(=O)[C@@H](NC(=O)[C@H](C)NC(=O)[C@H](C)NC(=O)CNC(=O)CNC(=O)[C@@H](N)CC(C)C)[C@@H](C)O)C(C)C)[C@@H](C)CC)C(=O)N[C@@H](CO)C(=O)N[C@@H](CC(N)=O)C(=O)N[C@@H](CCC(N)=O)C(=O)N[C@H](C(=O)N[C@@H](CS)C(=O)N1CCC[C@H]1C(=O)N[C@H](C(=O)N[C@H](C(=O)N[C@@H](C)C(=O)N[C@@H](CS)C(=O)N[C@H](C(=O)N[C@@H](CCCN=C(N)N)C(=O)N[C@@H](C)C(=O)N[C@@H](CS)C(=O)O)[C@@H](C)O)[C@@H](C)O)[C@@H](C)O)[C@@H](C)O` [LGGAATGVIGYISNQTCPTTACTRAC], for which the MIC in experiment [1] was at least 50 µM; in experiment [2], at least 100 µM; in experiment [3], at least 100 µM.

`CC[C@H](C)[C@H](NC(=O)[C@H](CCCCN)NC(=O)[C@H](C)NC(=O)CNC(=O)[C@@H](NC(=O)[C@H](CCCCN)NC(=O)[C@@H](NC(=O)[C@H](CCCCN)NC(=O)[C@H](C)NC(=O)CNC(=O)[C@@H](NC(=O)[C@H](CCCCN)NC(=O)[C@@H](NC(=O)[C@H](CCCCN)NC(=O)[C@H](C)NC(=O)CNC(=O)[C@@H](NC(=O)[C@@H](N)CCCCN)[C@@H](C)CC)[C@@H](C)CC)[C@@H](C)CC)[C@@H](C)CC)[C@@H](C)CC)C(=O)O` [KIGAKIKIGAKIKIGAKI]: the MIC was at least 50 µM in [1], 31 µM (≈ 57.4 µg/mL) in experiment [2] and at least 100 µM in experiment [3].

Turning to `CC[C@H](C)[C@H](NC(=O)[C@H](CC(N)=O)NC(=O)[C@H](C)NC(=O)[C@H](CCCN=C(N)N)NC(=O)[C@H](Cc1ccccc1)NC(=O)[C@H](CCC(=O)O)NC(=O)[C@H](Cc1ccccc1)NC(=O)[C@H](Cc1ccc(O)cc1)NC(=O)[C@H](Cc1ccccc1)NC(=O)CNC(=O)[C@@H]1CCCN1C(=O)[C@@H]1CCCN1C(=O)[C@@H](N)CCCN=C(N)N)C(=O)N[C@H](C(=O)N1CCC[C@H]1C(=O)N[C@@H](Cc1ccc(O)cc1)C(=O)N[C@@H](CC(C)C)C(=O)NCC(=O)N[C@@H](CCCN=C(N)N)C(=O)N[C@@H](CCCN=C(N)N)C(=O)O)[C@@H](C)CC` [RPPGFYFEFRANIIPYLGRR], the MIC in experiment [4] was at least 60.7 µM.

For the compound `CC[C@H](C)[C@H](NC(=O)[C@H](C)NC(=O)[C@H](CCCN=C(N)N)NC(=O)[C@H](CC(C)C)NC(=O)[C@@H](NC(=O)[C@H](CCCCN)NC(=O)[C@H](CC(C)C)NC(=O)[C@H](CC(C)C)NC(=O)[C@H](Cc1c[nH]c2ccccc12)NC(=O)[C@H](CCCCN)NC(=O)[C@@H](NC(=O)[C@@H](N)C(C)C)[C@@H](C)CC)[C@@H](C)CC)C(N)=O` [VIKWLLKILRAI], the MIC in experiment [5] is 1 µM and 2 µM.

`CC[C@H](C)[C@H](NC(=O)CNC(=O)[C@H](CO)NC(=O)[C@H](CC(C)C)NC(=O)[C@@H](NC(=O)[C@H](CCCN=C(N)N)NC(=O)CNC(=O)[C@@H](NC(=O)[C@H](CC(C)C)NC(=O)[C@@H]1CCCN1C(=O)[C@H](CC(C)C)NC(=O)[C@@H](N)Cc1ccccc1)[C@@H](C)CC)C(C)C)C(=O)N[C@@H](CC(C)C)C(=O)O` [FLPLIGRVLSGIL]: the MIC is at least 50 µM in experiment [1], at least 100 µM in experiment [2] and at least 100 µM in [3].

Regarding `CC[C@H](C)[C@H](N)C(=O)N[C@@H](CCCCN)C(=O)N[C@@H](CCCCN)C(=O)N[C@@H](CCCN=C(N)N)C(=O)N[C@@H](Cc1c[nH]c2ccccc12)C(=O)N[C@@H](Cc1c[nH]c2ccccc12)C(=O)N[C@@H](Cc1c[nH]c2ccccc12)C(=O)N[C@@H](Cc1ccccc1)C(=O)N[C@@H](CCCN=C(N)N)C(=O)O` [IKKRWWWFR], the MIC in [6] is 22.8 µM (≈ 32 µg/mL); in experiment [7] it was 22.8 µM (≈ 32 µg/mL); in experiment [8], at least 91.1 µM; in experiment [9], at least 91.1 µM; in experiment [10] it was at least 91.1 µM; with Candida albicans C627, at least 91.1 µM. The MIC in experiment [11] and in [12] was at least 45.5 µM in each case.

As for `CC[C@H](C)[C@H](NC(=O)[C@H](CCC(N)=O)NC(=O)[C@@H](N)CCCN=C(N)N)C(=O)N[C@@H](CCCN=C(N)N)C(=O)N[C@@H](CCCN=C(N)N)C(=O)N[C@H](C(=O)N[C@H](C(=O)N[C@@H](CCC(N)=O)C(=O)N[C@@H](CCCN=C(N)N)C(N)=O)[C@@H](C)CC)[C@@H](C)CC` [RQIRRIIQR], the MIC against Salmonella sp. is at least 40.4 µM; in [13], over 40.4 µM; in experiment [14], over 40.4 µM; in [15], over 40.4 µM; in the experiment on Escherichia coli, over 40.4 µM; against Yersinia enterocolitica it was at least 40.4 µM. For the same compound, the MIC in experiment [16] is at least 40.4 µM.

`CC[C@H](C)[C@H](NC(=O)[C@H](Cc1ccc(O)cc1)NC(=O)[C@@H](NC(=O)[C@@H]1CCCN1C(=O)[C@H](CCCN=C(N)N)NC(=O)[C@H](CC(N)=O)NC(=O)[C@H](CC(N)=O)NC(=O)CN)C(C)C)C(=O)N1CCC[C@H]1C(=O)N[C@@H](CCC(N)=O)C(=O)N1CCC[C@H]1C(=O)N[C@@H](CCCN=C(N)N)C(=O)N1CCC[C@H]1C(=O)N1CCC[C@H]1C(=O)N[C@@H](Cc1cnc[nH]1)C(=O)N1CCC[C@H]1C(=O)N[C@@H](C)C(=O)N[C@@H](CC(C)C)C(N)=O` [GNNRPVYIPQPRPPHPAL]: the MIC (in [17]; against Escherichia coli BL21AI) was at least 61.8 µM in each case.

For `CC[C@H](C)[C@H](NC(=O)[C@H](CCC(N)=O)NC(=O)[C@@H](N)CCCN=C(N)N)C(=O)N[C@@H](CCCN=C(N)N)C(=O)N[C@@H](CCCN=C(N)N)C(=O)N[C@@H](Cc1c[nH]c2ccccc12)C(=O)N[C@@H](Cc1c[nH]c2ccccc12)C(=O)N[C@@H](CCSC)C(=O)N[C@@H](CCCN=C(N)N)C(N)=O` [RQIRRWWMR], the MIC is at least 36 µM against Salmonella sp.; over 36 µM in experiment [13]; over 36 µM in [14]; over 36 µM in [15]; over 36 µM against Escherichia coli; at least 36 µM in the experiment with Yersinia enterocolitica. In experiment [16], the minimum inhibitory concentration (MIC) was at least 36 µM.

For the compound `CC(C)C[C@H](NC(=O)[C@H](Cc1c[nH]c2ccccc12)NC(=O)[C@H](CCCN=C(N)N)NC(=O)[C@H](Cc1c[nH]c2ccccc12)NC(=O)[C@H](Cc1c[nH]c2ccccc12)NC(=O)[C@H](CCCCN)NC(=O)[C@H](CCCCN)NC(=O)[C@H](Cc1c[nH]c2ccccc12)NC(=O)[C@@H](N)CCCN=C(N)N)C(=O)O` [RWKKWWRWL], the MIC in experiment [6] worked out at 2.77 µM (≈ 4 µg/mL); in [7] it was 2.77 µM (≈ 4 µg/mL); in [8] it was 11.1 µM (≈ 16 µg/mL); in experiment [9], 1.38 µM (≈ 2 µg/mL); in experiment [10], 11.1 µM (≈ 16 µg/mL); against Candida albicans C627, 2.77 µM (≈ 4 µg/mL). The MIC in experiment [11] and in experiment [12] was 11.1 µM (≈ 16 µg/mL) each time.
